Results: ChEMBL document CHEMBL1139793, “Synthesis, structure analysis, and antibacterial activity of some novel 10-substituted 2-(4-piperidyl/phenyl)-5,5-dioxo[1,2,4]triazolo[1,5-b][1,2,4]benzothiadiazine derivatives” (2007)
In brackets after ≈: the same amount, converted by molar mass.

Experiments:
Format in all cases: functional
[1] = tested on: Escherichia coli; experiment: Antibacterial activity against Escherichia coli MTCC 448 after 24 hrs by disk diffusion method
[2] = tested on: Pseudomonas aeruginosa; experiment: Antibacterial activity against Pseudomonas aeruginosa MTCC 424 after 24 hrs by disk diffusion method
[3] = tested on: Klebsiella pneumoniae; experiment: Antibacterial activity against Klebsiella pneumoniae MTCC 618 after 24 hrs by disk diffusion method
[4] = tested on: Staphylococcus epidermidis; experiment: Antibacterial activity against Staphylococcus epidermidis MTCC 435 after 24 hrs by disk diffusion method
[5] = tested on: Vibrio sp.; experiment: Antibacterial activity against Vibrio sp. after 24 hrs by disk diffusion method
[6] = tested on: Bacillus subtilis; experiment: Antibacterial activity against Bacillus subtilis MTCC 441 after 24 hrs by disk diffusion method

Row | MIC [1] | MIC [2] | MIC [3] | MIC [4] | MIC [5] | MIC [6] | Structure (SMILES)
1 | 16 µg/mL (≈ 30.7 µM) | 16 µg/mL (≈ 30.7 µM) | 32 µg/mL (≈ 61.3 µM) | 32 µg/mL (≈ 61.3 µM) | 32 µg/mL (≈ 61.3 µM) | 16 µg/mL (≈ 30.7 µM) | O=S(=O)(c1ccccc1)N1CCC(c2nc3n(n2)S(=O)(=O)c2ccccc2N3c2ccccc2)CC1
2 | 16 µg/mL (≈ 27.1 µM) | 32 µg/mL (≈ 54.2 µM) | 32 µg/mL (≈ 54.2 µM) | 32 µg/mL (≈ 54.2 µM) | 16 µg/mL (≈ 27.1 µM) | 16 µg/mL (≈ 27.1 µM) | O=S(=O)(c1ccc(Cl)cc1Cl)N1CCC(c2nc3n(n2)S(=O)(=O)c2ccccc2N3c2ccccc2)CC1
3 | 16 µg/mL (≈ 27.6 µM) | 32 µg/mL (≈ 55.3 µM) | 32 µg/mL (≈ 55.3 µM) | 32 µg/mL (≈ 55.3 µM) | 32 µg/mL (≈ 55.3 µM) | 16 µg/mL (≈ 27.6 µM) | CC(=O)Nc1ccc(S(=O)(=O)N2CCC(c3nc4n(n3)S(=O)(=O)c3ccccc3N4c3ccccc3)CC2)cc1
4 | 16 µg/mL (≈ 29.7 µM) | 32 µg/mL (≈ 59.3 µM) | 32 µg/mL (≈ 59.3 µM) | 32 µg/mL (≈ 59.3 µM) | 16 µg/mL (≈ 29.7 µM) | 16 µg/mL (≈ 29.7 µM) | O=S(=O)(c1ccc(F)cc1)N1CCC(c2nc3n(n2)S(=O)(=O)c2ccccc2N3c2ccccc2)CC1
5 | 8 µg/mL (≈ 17.4 µM) | 64 µg/mL (≈ 139 µM) | 32 µg/mL (≈ 69.6 µM) | 32 µg/mL (≈ 69.6 µM) | 32 µg/mL (≈ 69.6 µM) | 16 µg/mL (≈ 34.8 µM) | CN1c2ccccc2S(=O)(=O)n2nc(C3CCN(S(=O)(=O)c4ccccc4)CC3)nc21
6 | 8 µg/mL (≈ 13.6 µM) | 32 µg/mL (≈ 54.5 µM) | 16 µg/mL (≈ 27.3 µM) | 32 µg/mL (≈ 54.5 µM) | 32 µg/mL (≈ 54.5 µM) | 8 µg/mL (≈ 13.6 µM) | CC(=O)Nc1ccc(S(=O)(=O)Nc2ccc(-c3nc4n(n3)S(=O)(=O)c3ccccc3N4c3ccccc3)cc2)cc1
7 | 16 µg/mL (≈ 30.3 µM) | 64 µg/mL (≈ 121 µM) | 16 µg/mL (≈ 30.3 µM) | 16 µg/mL (≈ 30.3 µM) | 32 µg/mL (≈ 60.6 µM) | 16 µg/mL (≈ 30.3 µM) | CN1c2ccccc2S(=O)(=O)n2nc(C3CCN(S(=O)(=O)c4ccc(Cl)cc4Cl)CC3)nc21
8 | 8 µg/mL (≈ 15.5 µM) | 32 µg/mL (≈ 61.9 µM) | 32 µg/mL (≈ 61.9 µM) | 32 µg/mL (≈ 61.9 µM) | 16 µg/mL (≈ 31 µM) | 32 µg/mL (≈ 61.9 µM) | CC(=O)Nc1ccc(S(=O)(=O)N2CCC(c3nc4n(n3)S(=O)(=O)c3ccccc3N4C)CC2)cc1
9 | 16 µg/mL (≈ 29.9 µM) | 32 µg/mL (≈ 59.7 µM) | 16 µg/mL (≈ 29.9 µM) | 32 µg/mL (≈ 59.7 µM) | 32 µg/mL (≈ 59.7 µM) | 16 µg/mL (≈ 29.9 µM) | Cc1ccc(S(=O)(=O)N2CCC(c3nc4n(n3)S(=O)(=O)c3ccccc3N4c3ccccc3)CC2)cc1
10 | 16 µg/mL (≈ 29.2 µM) | 32 µg/mL (≈ 58.4 µM) | 64 µg/mL (≈ 117 µM) | 16 µg/mL (≈ 29.2 µM) | 32 µg/mL (≈ 58.4 µM) | 16 µg/mL (≈ 29.2 µM) | O=S(=O)(Nc1ccc(-c2nc3n(n2)S(=O)(=O)c2ccccc2N3c2ccccc2)cc1)c1ccc(F)cc1
11 | 16 µg/mL (≈ 26.7 µM) | 16 µg/mL (≈ 26.7 µM) | 32 µg/mL (≈ 53.5 µM) | 32 µg/mL (≈ 53.5 µM) | 32 µg/mL (≈ 53.5 µM) | 16 µg/mL (≈ 26.7 µM) | O=S(=O)(Nc1ccc(-c2nc3n(n2)S(=O)(=O)c2ccccc2N3c2ccccc2)cc1)c1ccc(Cl)cc1Cl
12 | 16 µg/mL (≈ 30.5 µM) | 32 µg/mL (≈ 61 µM) | 32 µg/mL (≈ 61 µM) | 32 µg/mL (≈ 61 µM) | 32 µg/mL (≈ 61 µM) | 16 µg/mL (≈ 30.5 µM) | CC(=O)Nc1ccc(S(=O)(=O)Nc2ccc(-c3nc4n(n3)S(=O)(=O)c3ccccc3N4C)cc2)cc1
13 | 16 µg/mL (≈ 29.4 µM) | 32 µg/mL (≈ 58.9 µM) | 32 µg/mL (≈ 58.9 µM) | 32 µg/mL (≈ 58.9 µM) | 32 µg/mL (≈ 58.9 µM) | 8 µg/mL (≈ 14.7 µM) | Cc1ccc(S(=O)(=O)Nc2ccc(-c3nc4n(n3)S(=O)(=O)c3ccccc3N4c3ccccc3)cc2)cc1
14 | 16 µg/mL (≈ 33.8 µM) | 64 µg/mL (≈ 135 µM) | 64 µg/mL (≈ 135 µM) | 32 µg/mL (≈ 67.6 µM) | 32 µg/mL (≈ 67.6 µM) | 16 µg/mL (≈ 33.8 µM) | Cc1ccc(S(=O)(=O)N2CCC(c3nc4n(n3)S(=O)(=O)c3ccccc3N4C)CC2)cc1
15 | 16 µg/mL (≈ 33.5 µM) | 32 µg/mL (≈ 67 µM) | 16 µg/mL (≈ 33.5 µM) | 32 µg/mL (≈ 67 µM) | 32 µg/mL (≈ 67 µM) | 32 µg/mL (≈ 67 µM) | CN1c2ccccc2S(=O)(=O)n2nc(C3CCN(S(=O)(=O)c4ccc(F)cc4)CC3)nc21
16 | 16 µg/mL (≈ 30.2 µM) | 32 µg/mL (≈ 60.4 µM) | 32 µg/mL (≈ 60.4 µM) | 32 µg/mL (≈ 60.4 µM) | 32 µg/mL (≈ 60.4 µM) | 8 µg/mL (≈ 15.1 µM) | O=S(=O)(Nc1ccc(-c2nc3n(n2)S(=O)(=O)c2ccccc2N3c2ccccc2)cc1)c1ccccc1
17 | 16 µg/mL (≈ 63.9 µM) | 32 µg/mL (≈ 128 µM) | > 64 µg/mL | 32 µg/mL (≈ 128 µM) | 16 µg/mL (≈ 63.9 µM) | 16 µg/mL (≈ 63.9 µM) | Nc1ccc(S(=O)(=O)Nc2ncccn2)cc1 [SULFADIAZINE]
18 | > 128 µg/mL | > 512 µg/mL | > 64 µg/mL | > 512 µg/mL | > 512 µg/mL | > 128 µg/mL | Nc1ccc(S(N)(=O)=O)cc1 [SULFANILAMIDE]
